The text below walks through data of patent US10851093B2, “Tyrosine kinase inhibitors” (Rigel Pharmaceuticals, Inc., priority 2018, dated 2020).

pEC50: −log10 of the molar value.

The term pEC50 denotes the EC50 on a negative log10 scale, so that one unit is a factor of ten. A higher pEC50 goes with a small EC50.

For assay [1], the target named is T1, MerTK (Homo sapiens, UniProt Q12866).
T1 construct: Seed HUVECs (10K cells/well) in EBM-2 complete media; host or cells: HUVEC
T1 sequence (Q12866 21-999): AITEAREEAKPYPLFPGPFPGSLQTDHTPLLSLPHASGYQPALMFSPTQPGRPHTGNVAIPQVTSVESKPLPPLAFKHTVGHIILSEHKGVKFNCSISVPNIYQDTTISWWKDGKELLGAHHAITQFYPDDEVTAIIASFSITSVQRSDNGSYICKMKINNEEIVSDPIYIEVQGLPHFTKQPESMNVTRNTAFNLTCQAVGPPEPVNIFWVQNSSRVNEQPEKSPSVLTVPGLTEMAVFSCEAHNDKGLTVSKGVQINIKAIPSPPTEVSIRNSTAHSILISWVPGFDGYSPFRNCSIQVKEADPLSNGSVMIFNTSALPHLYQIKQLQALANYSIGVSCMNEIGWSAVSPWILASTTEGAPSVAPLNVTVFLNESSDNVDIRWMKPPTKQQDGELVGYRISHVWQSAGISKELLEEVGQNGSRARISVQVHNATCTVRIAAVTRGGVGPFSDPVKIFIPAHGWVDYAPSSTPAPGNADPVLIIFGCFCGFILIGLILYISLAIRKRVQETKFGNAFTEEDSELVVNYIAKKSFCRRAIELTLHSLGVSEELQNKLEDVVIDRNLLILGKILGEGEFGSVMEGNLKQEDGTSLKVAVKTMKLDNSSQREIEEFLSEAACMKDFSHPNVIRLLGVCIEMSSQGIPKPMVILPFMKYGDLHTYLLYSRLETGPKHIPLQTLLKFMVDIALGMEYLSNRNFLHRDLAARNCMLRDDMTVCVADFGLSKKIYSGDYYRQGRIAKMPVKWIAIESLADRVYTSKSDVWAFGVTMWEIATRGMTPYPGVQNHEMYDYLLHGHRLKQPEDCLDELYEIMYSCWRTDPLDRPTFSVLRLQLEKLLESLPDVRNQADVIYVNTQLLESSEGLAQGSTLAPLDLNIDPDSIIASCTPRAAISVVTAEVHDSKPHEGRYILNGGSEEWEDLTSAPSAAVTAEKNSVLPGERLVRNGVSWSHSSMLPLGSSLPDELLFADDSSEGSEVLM
As to the kind of experiment: Phospho-AKT HTRF, HUVEC, Mer-XL, 8 pt (pAKT HTRF-HUVEC assay, anti-human MerTK-XL stimulation). The class given is cell-based. To be noted: HUVEC cells, pAkt(Ser473) HTRF, anti-human MerTK-XL stimulation 1 ug/mL 10 minutes. The protocol: (§1) Example 13: PAKT HTRF-HUVEC Assay
(§2) Seed HUVECs (10K cells/well) in EBM-2 complete media (EBM-2 basal medium plus EGM-2 BulletKit supplements) overnight at 37° C., 5% CO2 in Costar 96-well white clear-bottom plates. Remove culture media and starve cells for 3-4 hours in 50 μL/well EBM-2 basal medium. Perform serial dilution of compounds in DMSO from 2.5 mM in 4-fold dilutions, and then dilute 1:125 in EBM-2 basal media. Mix 50 μL/well 2× compounds with 50 μL/well HUVECs in duplicate in Costar 96-well white clear-bottom plates. Incubate plates for 1 hour at 37° C., 5% CO2. Cross-link anti-human MerTK antibody to Biotin-SP-conjugated anti-mouse IgG antibody (1:1) to give final concentrations of 5 μg/mL of anti-human MerTK-XL. Stimulate HUVECs with 25 μL/well 5× anti-human MerTK-XL to give final concentrations of 1 ug/mL for 10 minutes at 37° C., 5% CO2. Completely remove media and lyse HUVECs with 40 uL:WELL per well of Cisbio HTRF 1× lysis buffer. Performed pAkt(Ser473) HTRF assay in ProxiPlate-384 Plus, white 384-shallow well microplate according to the vendor protocol and read plates with a SpectralMax Paradigm plate reader. Enter the HTRF values into Athena (Rigel) for curve fitting, EC50 calculation, and database storage.

In assay [2] the target is T2, Axl (Homo sapiens, UniProt P30530).
T2 construct: Seed HUVECs (10K cells/well) in EBM-2 complete media; host or cells: HUVEC
T2 sequence (P30530 26-894): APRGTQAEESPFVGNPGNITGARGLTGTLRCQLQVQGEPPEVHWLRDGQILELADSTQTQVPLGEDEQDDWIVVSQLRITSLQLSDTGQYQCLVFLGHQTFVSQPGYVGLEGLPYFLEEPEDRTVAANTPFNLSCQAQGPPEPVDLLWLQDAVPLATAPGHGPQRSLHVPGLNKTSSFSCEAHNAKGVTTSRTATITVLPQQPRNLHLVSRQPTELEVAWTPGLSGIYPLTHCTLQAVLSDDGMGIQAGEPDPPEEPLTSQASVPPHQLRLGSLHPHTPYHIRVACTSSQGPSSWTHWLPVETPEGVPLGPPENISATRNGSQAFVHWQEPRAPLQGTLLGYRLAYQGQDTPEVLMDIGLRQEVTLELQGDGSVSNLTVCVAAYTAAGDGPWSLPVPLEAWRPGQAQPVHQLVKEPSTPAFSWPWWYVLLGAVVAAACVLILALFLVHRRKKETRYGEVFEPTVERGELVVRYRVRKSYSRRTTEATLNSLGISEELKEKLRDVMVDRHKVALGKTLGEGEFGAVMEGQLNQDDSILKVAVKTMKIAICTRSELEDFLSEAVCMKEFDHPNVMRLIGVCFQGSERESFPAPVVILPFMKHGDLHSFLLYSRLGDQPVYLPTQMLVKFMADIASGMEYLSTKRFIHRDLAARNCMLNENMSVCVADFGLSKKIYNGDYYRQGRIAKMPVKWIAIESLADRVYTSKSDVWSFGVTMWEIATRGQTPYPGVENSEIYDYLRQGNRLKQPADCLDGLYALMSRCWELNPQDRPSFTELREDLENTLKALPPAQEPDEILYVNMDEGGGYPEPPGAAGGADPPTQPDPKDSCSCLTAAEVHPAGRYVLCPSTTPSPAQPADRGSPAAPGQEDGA
As to the kind of experiment: Phospho-AKT HTRF, HUVEC, Axl ABX-L, 8 pt. The class given is cell-based. To be noted: HUVEC cells, pAkt(Ser473) HTRF, Axl ABX-L stimulation. The protocol: [The source words this procedure for another target and reports this target under the same test.] as §1, §2
(TR-FRET usually uses a lanthanide donor and a delayed reading to cut background.)

On to `COc1cc2c(Oc3ccc(NC(=O)c4csc(N5CCC(O)CC5)n4)nc3)ccnc2cc1OCCCN1CCOCC1` [Compound 41, 2-(4-hydroxypiperidin-1-yl)-N-(5-((6-methoxy-7-(3-morpholinopropoxy)quinolin-4-yl)oxy)pyridin-2-yl)thiazole-4-carboxamide], for which the pEC50 in assay [1] was 6.19; in assay [2] it was 5.67.
For `COc1cc2c(Oc3ccc(NC(=O)c4cccc(N5CCCCC5)n4)nc3)ccnc2cc1OCCCN1CCOCC1` [Compound 23, N-(5-((6-methoxy-7-(3-morpholinopropoxy)quinolin-4-yl)oxy)pyridin-2-yl)-6-(piperidin-1-yl)picolinamide] the same measures were 7.89 and 7.18.
In the case of `COc1cc2c(Oc3ccc(NC(=O)c4csc(Br)n4)nc3)ccnc2cc1OCCCN1CCOCC1` [Compound 40, 2-bromo-N-(5-((6-methoxy-7-(3-morpholinopropoxy)quinolin-4-yl)oxy)pyridin-2-yl)thiazole-4-carboxamide], the pEC50 was 7.57 in assay [1] and 6.83 in assay [2].
For `COc1cc2c(Oc3ccc(NC(=O)c4nc5ccccc5c(=O)[nH]4)nc3)ccnc2cc1OCCCN1CCOCC1` [Compound 12, N-(5-((6-Methoxy-7-(3-morpholinopropoxy)quinolin-4-yl)oxy)pyridin-2-yl)-4-oxo-3,4-dihydroquinazoline-2-carboxamide], in that order: 7.14 and 7.00.
For the compound `COc1cc2c(Oc3ccc(NC(=O)c4nccc(-c5ccccc5)n4)nc3)ccnc2cc1OCCCN1CCOCC1` [Compound 4, N-(5-((6-Methoxy-7-(3-morpholinopropoxy)quinolin-4-yl)oxy)pyridin-2-yl)-4-phenylpyrimidine-2-carboxamide], the pEC50 in assay [1] is 8.41; in assay [2], 8.30.
As to `COc1cc2c(Oc3ccc(NC(=O)c4csc(-c5ccccc5)n4)nc3)ccnc2cc1OCCCN1CCOCC1` [Compound 42, N-(5-((6-methoxy-7-(3-morpholinopropoxy)quinolin-4-yl)oxy)pyridin-2-yl)-2-phenylthiazole-4-carboxamide], the values for the pEC50 in assay [1] and in assay [2] were 7.33 and 7.30, respectively.
For `COc1cc2c(Oc3ccc(NC(=O)c4cc(-c5ccccc5)c5c(n4)C4CCN5CC4)nc3)ccnc2cc1OCCCN1CCOCC1` [Compound 2, N-(5-((6-Methoxy-7-(3-morpholinopropoxy)quinolin-4-yl)oxy)pyridin-2-yl)-8-phenyl-3,4-dihydro-2H-1,4-ethano-1,5-naphthyridine-6-carboxamide], in that order: 7.33 and 7.39.
For `COc1cc2nccc(Oc3ccc(NC(=O)c4nc(-c5ccccc5)c5c(n4)C4CCN5CC4)nc3)c2cc1OC` [Compound 38, N-(5-((6,7-dimethoxyquinolin-4-yl)oxy)pyridin-2-yl)-4-phenyl-7,8-dihydro-6H-5,8-ethanopyrido[3,2-d]pyrimidine-2-carboxamide] the same measures were 8.11 and 7.88.
`COc1cc2c(Oc3ccc(NC(=O)c4cc(N5CCC(C)(C)CC5)ccn4)nc3)ccnc2cc1OCCCN1CCOCC1` [Compound 22, 4-(4,4-dimethylpiperidin-1-yl)-N-(5-((6-methoxy-7-(3-morpholinopropoxy)quinolin-4-yl)oxy)pyridin-2-yl)picolinamide]: the figures for the pEC50 in assay [1] and in assay [2] were 7.02 and 6.73, respectively.
For `COc1cc2c(Oc3ccc(NC(=O)c4ncc(-c5ccccc5)s4)nc3)ccnc2cc1OCCCN1CCOCC1` [Compound 48, N-(5-((6-methoxy-7-(3-morpholinopropoxy)quinolin-4-yl)oxy)pyridin-2-yl)-5-phenylthiazole-2-carboxamide] the same measures were 6.62 and 6.46.
For `COc1cc2c(Oc3ccc(NC(=O)c4cccc(N5CC(F)(F)C5)n4)nc3)ccnc2cc1OCCCN1CCOCC1` [Compound 30, 6-(3,3-difluoroazetidin-1-yl)-N-(5-((6-methoxy-7-(3-morpholinopropoxy)quinolin-4-yl)oxy)pyridin-2-yl)picolinamide] the same measures were 8.03 and 6.96.
Turning to `CCOC1CCN(c2ccnc(C(=O)Nc3ccc(Oc4ccnc5cc(OCCCN6CCOCC6)c(OC)cc45)cn3)c2)CC1` [Compound 15, 4-(4-ethoxypiperidin-1-yl)-N-(5-((6-methoxy-7-(3-morpholinopropoxy)quinolin-4-yl)oxy)pyridin-2-yl)picolinamide], the negative-log EC50 (pEC50) is 6.69 in assay [1] and 6.59 in assay [2].
For `COc1cc2c(Oc3ccc(NC(=O)c4cc(F)ccn4)nc3)ccnc2cc1OCCCN1CCOCC1` [Compound 31, 4-Fluoro-N-(5-((6-methoxy-7-(3-morpholinopropoxy)quinolin-4-yl)oxy)pyridin-2-yl)picolinamide], in that order: 6.51 and 6.13.
For `COc1cc2c(Oc3ccc(NC(=O)c4cc(N5CCCC5)ccn4)nc3)ccnc2cc1OCCCN1CCOCC1` [Compound 16, N-(5-((6-methoxy-7-(3-morpholinopropoxy)quinolin-4-yl)oxy)pyridin-2-yl)-4-(pyrrolidin-1-yl)picolinamide] the same measures were 7.55 and 7.36.
For `COc1cc2c(Oc3ccc(NC(=O)c4cc(N5CCC(c6ccccc6)CC5)ccn4)nc3)ccnc2cc1OCCCN1CCOCC1` [Compound 17, N-(5-((6-methoxy-7-(3-morpholinopropoxy)quinolin-4-yl)oxy)pyridin-2-yl)-4-(4-phenylpiperidin-1-yl)picolinamide] the same measures were 5.79 and 5.86.
On to `COc1cc2c(Oc3ccc(NC(=O)c4cccc(N5CCC(O)CC5)n4)nc3)ccnc2cc1OCCCN1CCOCC1` [Compound 24, 6-(4-hydroxypiperidin-1-yl)-N-(5-((6-methoxy-7-(3-morpholinopropoxy)quinolin-4-yl)oxy)pyridin-2-yl)picolinamide], for which the pEC50 in assay [1] was 6.18; in assay [2] it was 6.13.
